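A five-concentration, 48-hour dose response in 96-well plates underlies each endpoint, interpolated linearly between surrounding concentrations. GI50: concentration for 50% inhibition of growth.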 Active and inactive are the calls of the source. Rule as the data show it: active = GI50 up to about 1.1 µM and inactive = higher.
Key:
Test in all cases: DTP human tumour cell line panel, 48 h
[1] = system: LXFL 529
[2] = system: DMS-114
[3] = system: RXF 631
[4] = system: DMS-273
[5] = system: HOP-18
[6] = system: M19-MEL
[7] = system: SNB-78
[8] = system: KM-20L2
[9] = system: XF498

Row | Compound | GI50 [1] | GI50 [2] | GI50 [3] | GI50 [4] | GI50 [5] | GI50 [6] | GI50 [7] | GI50 [8] | GI50 [9]
1 | CCCCCCCCCCCCC(=O)CCCCC(=O)O | 18 µM (inactive) | 18.8 µM (inactive) | 18.7 µM (inactive) | 33.4 µM (inactive) | 16 µM (inactive) | 18.2 µM (inactive) | 72.6 µM (inactive) | – | –
2 | O=C1CCC2(c3ccc(Cl)cc3)Nc3ccccc3N12 (centres undefined) | 47 µM (inactive) | 45.2 µM (inactive) | > 100 µM (inactive) | – | 50.2 µM (inactive) | 69 µM (inactive) | > 100 µM (inactive) | > 100 µM (inactive) | 77.1 µM (inactive)
3 | Cc1coc2c1C(=O)C(=O)c1ccccc1-2 | 0.403 µM (active) | 0.161 µM (active) | – | 1.54 µM (inactive) | < 0.01 µM (active) | – | 1.73 µM (inactive) | 3.36 µM (inactive) | –
4 | O=C(NC(Cc1ccccc1)C(=O)CCl)OCc1ccccc1 (centres undefined) | 3.6 µM (inactive) | 1.22 µM (inactive) | – | 5.02 µM (inactive) | 11.7 µM (inactive) | 13.7 µM (inactive) | 24.8 µM (inactive) | 7.69 µM (inactive) | –
5 | OC(Cn1cncn1)(Cn1cncn1)c1ccc(Cl)cc1Cl | > 100 µM (inactive) | > 100 µM (inactive) | – | > 100 µM (inactive) | > 100 µM (inactive) | > 100 µM (inactive) | > 100 µM (inactive) | > 100 µM (inactive) | –
6 | COc1cccc(C2SCc3nc4ccccc4n32)c1 (centres undefined) | – | 21.3 µM (inactive) | – | 39.1 µM (inactive) | > 100 µM (inactive) | 46.6 µM (inactive) | > 100 µM (inactive) | – | –
7 | C/C(CCN(C)C)=N\OC(=O)c1ccccc1 | > 100 µM (inactive) | > 100 µM (inactive) | – | > 100 µM (inactive) | 1.66 µM (inactive) | > 100 µM (inactive) | > 100 µM (inactive) | > 100 µM (inactive) | –
8 | COc1cc2c(cc1OC)[C@@H](C(O)c1ccccc1)NCC2 (some centres undefined) | > 100 µM (inactive) | > 100 µM (inactive) | > 100 µM (inactive) | > 100 µM (inactive) | – | > 100 µM (inactive) | > 100 µM (inactive) | > 100 µM (inactive) | > 100 µM (inactive)
9 | COc1ccc(-c2onc(-c3c(C)cc(C)cc3C)c2C2=NCCN2)cc1 | > 100 µM (inactive) | – | 70.6 µM (inactive) | – | 10.9 µM (inactive) | 86.5 µM (inactive) | 35.2 µM (inactive) | 28.3 µM (inactive) | –
10 | COc1cc2c3c(c1OC)Oc1ccc(cc1)CC1c4c(cc(OC)c(OC)c4Oc4ccc(cc4)CC3N(C)CC2)CCN1C (centres undefined) | 20.6 µM (inactive) | 19.8 µM (inactive) | – | 15.3 µM (inactive) | 25.9 µM (inactive) | 17.3 µM (inactive) | – | 19.8 µM (inactive) | –
11 | CCOC(=O)C1=C(Nc2ccc(Cl)c(Cl)c2)OC/C1=N\NC(=O)Cc1ccccc1 | > 100 µM (inactive) | > 100 µM (inactive) | – | > 100 µM (inactive) | 87.7 µM (inactive) | > 100 µM (inactive) | > 100 µM (inactive) | > 100 µM (inactive) | > 100 µM (inactive)
12 | CC1=CC2C(=O)N(c3ccccc3)C(=O)C2CC1n1[nH]c(=O)n(Cc2ccccc2)c1=O (centres undefined) | > 100 µM (inactive) | – | – | > 100 µM (inactive) | > 100 µM (inactive) | – | > 100 µM (inactive) | > 100 µM (inactive) | > 100 µM (inactive)
13 | CNS(=O)(=O)NN(C)S(=O)(=O)c1ccc(C)cc1 | – | > 100 µM (inactive) | – | – | – | > 100 µM (inactive) | – | > 100 µM (inactive) | –
14 | CN1CCCC2(CCCc3ccccc32)C1 (centres undefined) | > 100 µM (inactive) | > 100 µM (inactive) | > 100 µM (inactive) | > 100 µM (inactive) | – | > 100 µM (inactive) | > 100 µM (inactive) | > 100 µM (inactive) | –
15 | CC(=O)N(CCN)CCN | > 10 µM (inactive) | > 10 µM (inactive) | > 10 µM (inactive) | > 10 µM (inactive) | – | > 10 µM (inactive) | > 10 µM (inactive) | > 10 µM (inactive) | > 100 µM (inactive)
16 | COc1ccc(C2C(Cl)C(=O)N2NC(=O)Cc2ccccc2)cc1OC (centres undefined) | – | > 100 µM (inactive) | – | > 100 µM (inactive) | > 100 µM (inactive) | > 100 µM (inactive) | > 100 µM (inactive) | > 100 µM (inactive) | > 100 µM (inactive)
17 | COC(=O)C1=CC(=O)[C@@H]2CCCC[C@H]12 | > 100 µM (inactive) | > 100 µM (inactive) | > 100 µM (inactive) | > 100 µM (inactive) | > 100 µM (inactive) | > 100 µM (inactive) | > 100 µM (inactive) | > 100 µM (inactive) | –
18 | Cc1ccccc1C(=O)c1ccccc1O | > 100 µM (inactive) | > 100 µM (inactive) | > 100 µM (inactive) | > 100 µM (inactive) | > 100 µM (inactive) | > 100 µM (inactive) | > 100 µM (inactive) | > 100 µM (inactive) | > 100 µM (inactive)
19 | CCC(C)n1c(C)nc2c1C(=O)c1ccccc1C2=O (centres undefined) | 33.4 µM (inactive) | – | – | 34.2 µM (inactive) | – | 18.2 µM (inactive) | > 100 µM (inactive) | 43.7 µM (inactive) | 44.8 µM (inactive)
20 | CC1=C(Cl)C=CP(=O)(OC(C)C)C1 (centres undefined) | > 100 µM (inactive) | > 100 µM (inactive) | 33.1 µM (inactive) | – | > 100 µM (inactive) | > 100 µM (inactive) | > 100 µM (inactive) | > 100 µM (inactive) | –
21 | CCOc1cc(/C=C/C=C/c2ccc(N(C)C)cc2)[s+]c2ccccc12 | 12.3 µM (inactive) | 5.27 µM (inactive) | 33 µM (inactive) | 9.31 µM (inactive) | 99.1 µM (inactive) | 26.2 µM (inactive) | 25.5 µM (inactive) | 71 µM (inactive) | 20.8 µM (inactive)
22 | COc1ccc(NN=C2C(=O)CCC2=O)cc1 | – | > 100 µM (inactive) | > 100 µM (inactive) | > 100 µM (inactive) | > 100 µM (inactive) | > 100 µM (inactive) | > 100 µM (inactive) | – | –
23 | c1ccc(-c2ccnc3c2ccc2c(-c4ccccc4)ccnc23)cc1 | 0.71 µM (active) | 0.382 µM (active) | 0.604 µM (active) | 2.56 µM (inactive) | 2.34 µM (inactive) | 1.74 µM (inactive) | 5.05 µM (inactive) | 3.73 µM (inactive) | –
